According to paper PMC6563033, “Purification and Characterization of Antioxidant Peptides Derived from Protein Hydrolysate of the Marine Bivalve Mollusk Tergillarca granosa” (Marine Drugs, 2019):
Like-named read-outs stand apart in the source and are kept apart here. Marks after values point to notes of the source that are not given here. Residues, ends and D or L forms follow the SMILES beside them. No end group written: not given here.

Legend:
[1] = Simulated GI digestion (pepsin + pancreatin), read out as hydroxyl radical scavenging EC50; assay type: in vitro ADME; conditions: two-stage digestion: pepsin 1.0 h + pancreatin 2.0 h; judged from hydroxyl radical EC50
Protocol: (§1) First, 1.0 mL of a 1.87 mM 1,10-phenanthroline solution and 2.0 mL of the sample were added to a screw-capped tube and mixed. Then, 1.0 mL of a FeSO4·7H2O solution (1.87 mM) was added to the mixture. The reaction was initiated by adding 1.0 mL of H2O2 (0.03%, v/v). After being incubated at 37 °C for 60 min in a water bath, the absorbance of the reaction mixture was measured at 536 nm against a reagent blank. The reaction mixture without any antioxidant was used as the negative control, and a mixture without H2O2 was used as the blank. The hydroxyl radical scavenging activity was calculated using the following formula: Hydroxyl radical scavenging activity (%) = [(As − An)/(Ab − An)] × 100% (3) where As, An, and Ab are the absorbance values determined at 536 nm of the sample, the negative control, and the blank after the reaction, respectively.
Stability of TGP3 and TGP4 were measured according to the previous method with minor modifications. A temperature-controlled water bath at 25, 37, 60, 80, or 100 °C for 0.5 h was used to measure thermostability of TGP3 and TGP4. Effects of pH treatments (pH 3, 5, 7, 9, or 11) of sample solutions incubated at 25 °C for 2.5 h were assessed to analyze the pH stability of TGP3 and TGP4. […] Hydroxyl radical scavenging activities (EC50 value) of the treated TGP3 and TGP4 were measured according to the previous methods.

[2] = cited from earlier work; for EC50 (half elimination ratio) on ABTS cation radical: APs from blue-spotted stingray
Text: Bioactive peptides (BPs), which in general range from 2 to 20 amino acids in size, are fragments of proteins and become active when released during enzymatic hydrolysis, gastrointestinal transit, and fermentation. […] Furthermore, EC50 values of TGP3 and TGP4 were lower than those of APs from protein hydrolysates of skip ...

[3] = cited from earlier work; for Change of activity during heat treatment: heat 25–100 °C; for Change of activity during pH treatment: pH 3–11
Text: Heat treatment is a common method of food processing and APs are helpful to lengthen the food shelf-life if they can keep their activity after heating. Peptides with large-scale pH stability can be incorporated into diverse liquid products and keep their bioactivity. Therefore, thermal and pH stability of peptides are important indexes for their application in functional products, and characterization of those properties can help to design their potential processing parameters. ATSHH from protein hydrolysate of sandfish (Arctoscopus japonicus) partially lost its DPPH radical scaven ...

[4] = APs from skipjack tuna bone; cited from earlier work
[5] = DPPH radical scavenging activity; assay type: biochemical; conditions: isolated APs; 0.02% ethanolic DPPH; EC50 from linear relation of scavenging rate and concentration; mean ± SD, n = 3
Protocol: (§2) The DPPH radical, hydroxyl radical, superoxide anion radical, and ABTS cation radical scavenging activities were measured according to the previous methods. The results were expressed as a half elimination ratio (EC50) defined as the concentration by which a sample caused a 50% decrease of the initial concentration of DPPH radical, hydroxyl radical, superoxide anion radical, and ABTS cation radical, respectively, and the calculation method of EC50 was according to linear relationship of radical scavenging rates and concentrations of samples [6, 26].
Two millilitres of samples consisting of DW and different concentrations of the analytes were placed in cuvettes, and 500 μL of an ethanolic solution of DPPH (0.02%) and 1.0 mL of ethanol were added. A control sample containing the DPPH solution without the sample was also prepared. In the blank, the DPPH solution was substituted with ethanol. The antioxidant activity of the sample was evaluated using the inhibition percentage of the DPPH radical with the following equation: DPPH radical scavenging activity (%) = (A0 + Ab − A)/A0 × 100% (2) where A is the absorbance rate of the sample, A0 is the control group absorbance, and Ab is the blank absorbance.

[6] = Hydroxyl radical scavenging activity (1,10-phenanthroline/FeSO4/H2O2); assay type: biochemical; conditions: isolated APs; 37 °C, 60 min, absorbance 536 nm; mean ± SD, n = 3
Protocol: as §2
as §1, with “The reaction mixture without any antioxidant was used as the negative control, and a mixture without H2O2 was used as the blank.” left out

[7] = Superoxide anion radical scavenging activity (NBT/NADH/PMS); assay type: biochemical; conditions: isolated APs; 25 °C, 5 min, absorbance 560 nm; mean ± SD, n = 3
Protocol: as §2
The superoxide anions were generated in 1 mL of nitrotetrazolium blue chloride (2.52 mM), 1 mL of nicotinamide adenine dinucleotide hydride (NADH) ([…]) and 1 mL of different sample concentrations. The reaction was initiated by adding 1 ml of phenazine methosulphate solution (120 μM) to the reaction mixture. The absorbance was measured at 560 nm against the corresponding blank after 5 min incubation at 25 °C. The superoxide anion radical scavenging capacity was calculated using the following equation: Superoxide anion radical scavenging activity (%) = [(Acontrol − Asample)/Acontrol] × 100% (4) where Acontrol is the absorbance without sample and Asample is the absorbance with sample.

[8] = ABTS cation radical scavenging activity; assay type: biochemical; conditions: isolated APs; 5 mM PBS pH 7.4, 10 min, absorbance 734 nm; mean ± SD, n = 3
Protocol: as §2
The ABTS radical cation was generated by mixing ABTS stock solution (7 mM) with potassium persulphate (2.45 mM). The mixture was left in the dark at room temperature for 16 h. The ABTS radical solution was diluted in 5 mM PBS pH 7.4, to an absorbance of 0.70 ± 0.02 at 734 nm. One milliliter of diluted ABTS radical solution was mixed with one milliliter of different concentrations of samples. 10 min later, the absorbance was measured at 734 nm against the corresponding blank. The ABTS scavenging activity of samples was calculated using the following equation: ABTS scavenging activity (%) = [(Acontrol − Asample)/Acontrol] × 100% (5) where Acontrol is the absorbance without sample and Asample is the absorbance with sample.

Compound: MDLFTE [TGP-3, Met-Asp-Leu-Phe-Thr-Glu]
- Susceptibility to GI digestive enzymes [1]: partially susceptible to be degradated by GI digestive enzymes

Compound: FLNEFLHV [literature AP from salmon]
- EC50 on ABTS cation radical ([2]; AP from salmon): 1548 µg/mL

Compound: ATSHH [literature peptide from protein hydrolysate of sandfish (Arctoscopus japonicus)]
- Retention of activity after pH treatment ([3]; basic (pH 10–12) and acidic (pH 2) conditions): moderate losses of activity
- Retention of DPPH radical scavenging activity after heating ([3]; incubated at 50–90 °C): partially lost its DPPH radical scavenging activity

Compound: AGPM [literature AP from skipjack tuna bone]
- EC50 on superoxide anion radical [4]: 1680 µg/mL
- EC50 on ABTS cation radical ([2]; APs from skipjack tuna bone): 1480 µg/mL

Compound: GFVG [literature AP from spotless smoothhound muscle]
- EC50 on ABTS cation radical ([2]; APs from spotless smoothhound muscle, no reference given): 1305.5 µg/mL

Compound: WIDPDG [TGP-2, antioxidant peptide from blood cockle (T. granosa) protein hydrolysate]
- Half Elimination Ratio (EC50) DPPH Radical [5]: 1.82 ± 0.16 ^c mg/mL
- Half Elimination Ratio (EC50) Hydroxyl Radical [6]: 1.54 ± 0.11 ^b mg/mL
- Half Elimination Ratio (EC50) Superoxide Anion Radical [7]: 2.49 ± 0.17 ^b mg/mL
- Half Elimination Ratio (EC50) ABTS Cation Radical [8]: 2.56 ± 0.23 ^b mg/mL

Compound: IVAGPQ [literature AP from skate cartilage]
- EC50 on ABTS cation radical ([2]; APs from skate cartilage): 1290 µg/mL

Compound: MYPGLA [literature peptide from blue-spotted stingray]
- EC50 (half elimination ratio) on ABTS cation radical [2]: 12880 µg/mL
- Change of activity during heat treatment [3]: no significant (p > 0.05) differences
- Change of activity during pH treatment [3]: no significant (p > 0.05) differences

Compound: WAFAPA [literature peptide from blue-spotted stingray]
- EC50 (half elimination ratio) on ABTS cation radical [2]: 8330 µg/mL
- Change of activity during heat treatment [3]: no significant (p > 0.05) differences
- Change of activity during pH treatment [3]: no significant (p > 0.05) differences

Compound: GPDGR [literature AP from skipjack tuna bone]
- EC50 on superoxide anion radical [4]: 1440 µg/mL
- EC50 on ABTS cation radical ([2]; APs from skipjack tuna bone): 1070 µg/mL

Compound: FIMGPY [literature AP from skate cartilage]
- EC50 on ABTS cation radical ([2]; APs from skate cartilage): 1040 µg/mL

Compound: N[C@@H](Cc1c[nH]c2ccccc12)C(=O)N1CCC[C@H]1C(=O)N1CCC[C@H]1C(=O)N[C@@H](CC(=O)O)C(=O)O [TGP-4, Trp-Pro-Pro-Asp] (H-WPPD-OH)
- Susceptibility to GI digestive enzymes [1]: partially susceptible to be degradated by GI digestive enzymes
